The values that follow come from ChEMBL document CHEMBL1201862, “PubChem BioAssay data set” (2004).

As usually defined, the AC50 is the concentration at which the activity in the assay is half-maximal. In general, EC50 refers to the midpoint of the concentration-response curve.

The source made the active and inactive calls.

Some targets named below: Cytochrome P450 3A4 (Homo sapiens, UniProt P08684); Cytochrome P450 2D6 (Homo sapiens, UniProt P10635); Cytochrome P450 2C9 (Homo sapiens, UniProt P11712).
In another assay the target is Cytochrome P450 2C19 (Homo sapiens, UniProt P33261). The experiment in a line: Cytochrome panel assay with activity outcomes. Panel member name: p450-cyp2c19 Compounds with AC50 equal or less than 10 uM are considered active. The class given is functional. The following applies: read-out: AC50.
Cytochrome P450 2C19, sequence (P33261 whole entry): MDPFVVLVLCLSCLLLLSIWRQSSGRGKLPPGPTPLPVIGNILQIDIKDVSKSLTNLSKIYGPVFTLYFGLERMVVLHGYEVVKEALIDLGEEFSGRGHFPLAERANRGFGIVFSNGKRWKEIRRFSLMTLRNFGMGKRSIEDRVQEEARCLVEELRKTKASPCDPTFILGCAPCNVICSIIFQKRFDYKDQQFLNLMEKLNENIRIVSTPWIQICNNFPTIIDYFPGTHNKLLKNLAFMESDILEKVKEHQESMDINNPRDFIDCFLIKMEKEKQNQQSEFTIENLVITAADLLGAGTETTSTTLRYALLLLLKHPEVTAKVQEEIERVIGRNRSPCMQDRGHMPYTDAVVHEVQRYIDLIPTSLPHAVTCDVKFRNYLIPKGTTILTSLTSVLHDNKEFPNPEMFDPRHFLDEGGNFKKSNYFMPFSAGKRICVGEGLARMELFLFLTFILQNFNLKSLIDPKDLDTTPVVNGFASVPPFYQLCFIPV
Another assay concerns the target T1, Cytochrome P450 1A2 (Homo sapiens, UniProt P05177).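 Further: PubChem cytochrome P450 panel assay, CYP1A2 panel member.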
T1 sequence (P05177 whole entry): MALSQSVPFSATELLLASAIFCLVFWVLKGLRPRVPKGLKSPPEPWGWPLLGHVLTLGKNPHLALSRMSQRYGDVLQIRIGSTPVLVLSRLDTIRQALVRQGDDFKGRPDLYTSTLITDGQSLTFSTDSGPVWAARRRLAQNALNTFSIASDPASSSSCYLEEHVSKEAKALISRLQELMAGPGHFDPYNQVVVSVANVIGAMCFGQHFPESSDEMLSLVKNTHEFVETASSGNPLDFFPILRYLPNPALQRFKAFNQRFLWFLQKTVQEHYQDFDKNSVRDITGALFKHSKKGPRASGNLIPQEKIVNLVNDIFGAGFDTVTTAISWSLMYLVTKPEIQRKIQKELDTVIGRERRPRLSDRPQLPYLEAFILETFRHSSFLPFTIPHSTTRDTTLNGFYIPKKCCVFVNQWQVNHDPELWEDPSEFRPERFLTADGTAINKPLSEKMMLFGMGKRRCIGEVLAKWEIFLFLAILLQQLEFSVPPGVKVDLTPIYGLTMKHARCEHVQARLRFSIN

Assay [1] can be described thus: Luminescence Cell-Based Dose Response HTS to Identify Activators of Luciferase Translation or Activity in H4 […] Cells. [Related pubchem assays: 1829 (Project Summary), 1814 (Primary HTS)]. The class given is functional.
The next assay relates to H4. In words: Luminescence Cell-Based Dose Response HTS to Identify Activators of 5'UTR Stem-Loop Driven Prion Protein mRNA Translation in H4 Neuroglioblastoma Cells. [Related pubchem assays: 1829 (Project Summary), 1814 (Primary HTS)]. The following applies: Homo sapiens. The class given is functional.
Assay [2] in a line: NIH-3T3 fibroblast cytotoxicity, dose response, cytotoxicity control, cell-based, fluorescence, Alamar Blue, secondary assay (AID 2327).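 Further: NIH-3T3 mouse fibroblasts cultured with fluconazole at 8 µg/mL.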 The class given is functional.

Cytochrome P450 2C9, sequence (P11712 whole entry): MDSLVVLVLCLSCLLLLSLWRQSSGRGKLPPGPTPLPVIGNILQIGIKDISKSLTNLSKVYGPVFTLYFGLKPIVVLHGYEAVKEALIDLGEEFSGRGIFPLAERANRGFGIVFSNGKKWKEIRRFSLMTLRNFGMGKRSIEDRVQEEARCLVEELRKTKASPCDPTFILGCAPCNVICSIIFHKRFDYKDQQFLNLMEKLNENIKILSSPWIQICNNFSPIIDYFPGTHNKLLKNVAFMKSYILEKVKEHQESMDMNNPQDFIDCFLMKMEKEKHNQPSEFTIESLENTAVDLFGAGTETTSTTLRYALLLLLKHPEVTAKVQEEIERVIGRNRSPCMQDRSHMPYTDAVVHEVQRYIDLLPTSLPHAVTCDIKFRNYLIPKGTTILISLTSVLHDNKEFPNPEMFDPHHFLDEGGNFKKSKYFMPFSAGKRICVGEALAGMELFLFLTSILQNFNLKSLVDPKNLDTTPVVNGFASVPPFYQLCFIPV
Cytochrome P450 3A4, sequence (P08684 whole entry): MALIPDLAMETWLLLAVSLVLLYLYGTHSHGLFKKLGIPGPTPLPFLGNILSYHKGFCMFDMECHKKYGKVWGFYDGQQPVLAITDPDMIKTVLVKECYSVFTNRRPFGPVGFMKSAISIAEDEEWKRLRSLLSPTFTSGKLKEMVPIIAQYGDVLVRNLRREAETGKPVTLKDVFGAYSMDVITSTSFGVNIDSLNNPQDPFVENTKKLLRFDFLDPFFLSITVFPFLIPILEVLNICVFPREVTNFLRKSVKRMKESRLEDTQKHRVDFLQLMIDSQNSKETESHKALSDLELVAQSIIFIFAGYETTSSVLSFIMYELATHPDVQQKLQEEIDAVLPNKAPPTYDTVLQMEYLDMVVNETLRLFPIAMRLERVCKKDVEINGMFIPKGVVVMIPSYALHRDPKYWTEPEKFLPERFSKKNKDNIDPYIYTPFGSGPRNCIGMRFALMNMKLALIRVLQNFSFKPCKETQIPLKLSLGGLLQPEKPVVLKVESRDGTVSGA
Cytochrome P450 2D6, sequence (P10635 whole entry): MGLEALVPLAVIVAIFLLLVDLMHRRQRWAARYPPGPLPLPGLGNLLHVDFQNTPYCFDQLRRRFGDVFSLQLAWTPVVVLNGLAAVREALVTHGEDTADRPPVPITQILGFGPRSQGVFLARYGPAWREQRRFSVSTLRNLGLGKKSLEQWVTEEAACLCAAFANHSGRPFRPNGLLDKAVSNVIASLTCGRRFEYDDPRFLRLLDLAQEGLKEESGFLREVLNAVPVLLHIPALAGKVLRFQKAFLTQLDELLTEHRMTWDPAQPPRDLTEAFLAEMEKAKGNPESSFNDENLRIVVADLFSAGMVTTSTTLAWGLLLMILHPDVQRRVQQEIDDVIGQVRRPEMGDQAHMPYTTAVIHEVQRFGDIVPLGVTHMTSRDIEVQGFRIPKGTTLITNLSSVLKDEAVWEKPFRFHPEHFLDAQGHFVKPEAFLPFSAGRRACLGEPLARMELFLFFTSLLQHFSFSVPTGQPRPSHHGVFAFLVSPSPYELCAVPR

With `O=C1CCC[C@@H](C(C(=O)OCc2ccccc2)C(=O)OCc2ccccc2)C1`, the AC50 on Cytochrome P450 2C19 and at Cytochrome P450 3A4 was 3.98 µM (inconclusive) in each case. As to `CCCCSc1nc(C)cc(N=C(S)Nc2ccc(OC)cc2)n1`, the AC50 at Cytochrome P450 1A2 was 4.47 µM (inconclusive). As for `CCCC(=O)Nc1c2c(nn1-c1ccc(C)cc1C)CSC2`, the AC50 at Cytochrome P450 2D6 is 28.2 µM (inconclusive); on Cytochrome P450 1A2, 12.6 µM (inconclusive). Regarding `O=C(c1cnc(N2CCN(c3ncccn3)CC2)c2ccccc12)N1CCN(c2ccccn2)CC1`, the AC50 on Cytochrome P450 1A2 was 0.0251 µM (inconclusive). For the compound `C=CC[C@@H]1C=C[C@H](O/N=C(\C)CCN2CCc3nc(CC)c(CC)cc3C2)[C@H](CO)O1`, the AC50 on Cytochrome P450 2D6 is 3.98 µM (inconclusive).

For the compound `O=S(=O)(c1ccccc1)N1CCC2(CC1)CN(c1ccccn1)C2`, the results for the half-maximal activity concentration (AC50) at Cytochrome P450 2C19, on Cytochrome P450 2D6 and at Cytochrome P450 3A4 were 10 µM (inconclusive), 20 µM (inconclusive) and 12.6 µM (inconclusive), respectively. Consider `c1ccc(N2CCC3(CCNCC3)CC2)nc1`, for which the figures for the half-maximal activity concentration (AC50) at Cytochrome P450 2C19, at Cytochrome P450 3A4 and on Cytochrome P450 2C9 were 25.1 µM (inconclusive), 25.1 µM (inconclusive) and 31.6 µM (inconclusive), respectively. For the compound `O=C(O)CN1CCN(Cc2ccc(F)cc2Cl)C1=O`, at Cytochrome P450 2D6, the AC50 was 20 µM (inconclusive). As to `COC(=O)[C@H](Cc1ccccc1)NC(=O)N1CCN(Cc2ccccc2)CC1`, the AC50 was 14.1 µM (inconclusive) at Cytochrome P450 3A4 and 0.01 µM (inconclusive) at Cytochrome P450 2C9.

Consider `CCNc1ncc2nc(-c3cccs3)c(=O)n(CCc3ccccc3)c2n1`, for which the values for the half-maximal activity concentration (AC50) at Cytochrome P450 2D6 and on Cytochrome P450 3A4 were 20 µM (inconclusive) and 15.8 µM (inconclusive), respectively.

As to `Cc1cccc(Nc2ccccc2C(=O)OCC(=O)NCc2ccco2)c1C`, at Cytochrome P450 2C9, the AC50 was 11.2 µM (inconclusive).

In the case of `CCCn1c(-c2cccs2)nc2nc3ccccc3nc21`, the half-maximal activity concentration (AC50) at Cytochrome P450 2D6 was 28.2 µM (inconclusive). Take `C[C@@H](C(=O)Nc1ccc2ccccc2c1)[C@@H]1C[C@@]1(C)[C@@H](NC(=O)Oc1ccc(F)cc1)c1ccccc1`: the AC50 on Cytochrome P450 2C9 is 0.251 µM (inconclusive). As for `CCC(C)NC(=O)CCS(=O)(=O)c1ccc(Br)s1` (stereo unspecified), the AC50 on Cytochrome P450 2D6 was 28.2 µM (inconclusive); on Cytochrome P450 2C9, 12.6 µM (inconclusive). For `Nc1cc(N)nc(SCC(=O)c2ccccc2)n1`, the half-maximal activity concentration (AC50) was 7.08 µM (inconclusive) on Cytochrome P450 2C19 and 35.5 µM (inconclusive) on Cytochrome P450 3A4. As to `CCc1ccc(OCC(=O)NC(=S)Nc2ccc(C)cc2C)c(Br)c1`, the AC50 is 4.47 µM (inconclusive) on Cytochrome P450 1A2, 31.6 µM (inconclusive) on Cytochrome P450 3A4 and 0.631 µM (inconclusive) at Cytochrome P450 2C9. `Cc1noc(C)c1-c1nccc(NCCN2CCOCC2)n1`: the half-maximal activity concentration (AC50) on Cytochrome P450 2D6 and at Cytochrome P450 3A4 was 20 µM (inconclusive) in each case. Consider `FC(F)(F)c1cc(-c2ccco2)nc(NCc2cccs2)n1`, for which the half-maximal activity concentration (AC50) is 1.26 µM (inconclusive) at Cytochrome P450 2C19 and 20 µM (inconclusive) on Cytochrome P450 2D6. For `Cc1ccc(-n2c(C)c(C)c3c(NCCCO)ncnc32)cc1`, the concentration giving a half-maximal response (EC50) is 119 µM (active) in assay [1] and > 120 µM (not active) in the assay on H4.

Turning to `COc1ccccc1-c1cncnc1N(C)Cc1ccco1`, the concentration at half-maximal activity (AC50) on Cytochrome P450 2D6 was 25.1 µM (inconclusive).

`COc1ccc(C2=Nc3c(c(=O)n(C)c(=O)n3C)C(C(F)(F)F)(C(F)(F)F)N2)cc1`: the AC50 on Cytochrome P450 1A2 was 11.2 µM (inconclusive); at Cytochrome P450 3A4 it was 14.1 µM (inconclusive). `O=C(NCCOc1nc(N2CCOCC2)nc(N2CCOCC2)n1)Nc1ccccc1`: the AC50 was 22.4 µM (inconclusive) on Cytochrome P450 3A4 and 15.8 µM (inconclusive) at Cytochrome P450 2C9.

Turning to `CC(C)(C)C1CCC2(CC1)CCN(CCCN1CCOCC1)CC2`, the AC50 at Cytochrome P450 2D6 was 3.98 µM (inconclusive). For the compound `COc1ccc(C2C(C#N)=C(N)N(Nc3ccccc3)C3=C2C(=O)CC(C)(C)C3)cc1C` (stereo unspecified), the AC50 on Cytochrome P450 1A2 was 39.8 µM (inconclusive). With `Cc1ccc(-n2c(C)cc(/C=C(\C#N)C(=O)NCC3CCCO3)c2C)cc1` (stereo unspecified), the AC50 on Cytochrome P450 2D6 was 14.1 µM (inconclusive); at Cytochrome P450 3A4, 31.6 µM (inconclusive). For `COC(=O)c1cc2c(ccn2-c2ccc(F)cc2)n1C(C)C`, the results for the AC50 on Cytochrome P450 3A4 and at Cytochrome P450 2C9 were 25.1 µM (inconclusive) and 22.4 µM (inconclusive), respectively. Take `c1ccc(Nc2ncnc3ccc(-c4ccc5c(c4)OCO5)cc23)cc1`: the concentration at half-maximal activity (AC50) on Cytochrome P450 2C9 was 1.58 µM (inconclusive). Take `CN(C)c1ncc2nc(-c3ccc(F)cc3)c(=O)n(CCC#N)c2n1`: the AC50 at Cytochrome P450 2D6 is 0.501 µM (inconclusive); on Cytochrome P450 1A2, 1.26 µM (inconclusive). In the case of `Cc1ccc(C)c(Nc2nc3nonc3nc2N2CCOCC2)c1`, the concentration at half-maximal activity (AC50) at Cytochrome P450 2C9 was 0.355 µM (inconclusive). `CN1CCN(c2ncnc3ccc(-c4cccc(NS(C)(=O)=O)c4)cc23)CC1`: the values for the half-maximal activity concentration (AC50) at Cytochrome P450 1A2 and on Cytochrome P450 3A4 were 25.1 µM (inconclusive) and 12.6 µM (inconclusive), respectively. For the compound `O=C(NCCN1CCN(C(=O)c2cc3ccccc3oc2=O)CC1)c1cc2ccccc2oc1=O`, the half-maximal activity concentration (AC50) was 3.98 µM (inconclusive) at Cytochrome P450 2C19 and 14.1 µM (inconclusive) at Cytochrome P450 3A4.

As for `Cc1c(C=O)c2ccccn2c1C(=O)c1ccncc1`, the concentration at half-maximal activity (AC50) on Cytochrome P450 2D6 is 25.1 µM (inconclusive); on Cytochrome P450 3A4 it was 10 µM (inconclusive). In the case of `COc1cccc(NC(=O)NCCC2=CCCCC2)c1`, the figures for the EC50 (in assay [1]; in the assay on H4) were 51 µM (active) and 0.324 µM (active), respectively. In the case of `COc1ccc(COC(=O)N/N=C2/C[C@@H](O)[C@@H](O)[C@@H]3[C@@H]4C(=O)N(c5cccc(Oc6ccccc6)c5)C(=O)[C@H]4CC[C@@H]23)cc1`, the AC50 at Cytochrome P450 2D6 is 3.16 µM (inconclusive). In the case of `O=C(NCCCN1CCCCCC1)[C@@H](c1ccccc1)C1CCCCC1`, the concentration at half-maximal activity (AC50) at Cytochrome P450 1A2 was 31.6 µM (inconclusive).

As to `Cc1nn2c(NCC(C)C)c3c(nc2c1-c1ccccc1)CCC3`, the AC50 on Cytochrome P450 3A4 is 10 µM (inconclusive); at Cytochrome P450 2C9 it was 0.708 µM (inconclusive). For `CCOc1ccc(N2CC(C(=O)NCc3cccc(C)c3)CC2=O)cc1` (stereo unspecified), the AC50 on Cytochrome P450 1A2 is 14.1 µM (inconclusive). On to `CCCCNC(=O)C(=O)c1ccccc1NC(C)=O`, for which the AC50 was 22.4 µM (inconclusive) at Cytochrome P450 2C19 and 39.8 µM (inconclusive) on Cytochrome P450 1A2. Regarding `CC(C)On1c(SC(C)C)nc2ccccc2c1=O`, the values for the half-maximal activity concentration (AC50) at Cytochrome P450 2C19 and at Cytochrome P450 2C9 were 28.2 µM (inconclusive) and 31.6 µM (inconclusive), respectively. For `COc1ccc(S(=O)(=O)N(CC(=O)N2CCCC2)Cc2ccccc2)cc1`, the AC50 on Cytochrome P450 2C9 is 1 µM (inconclusive). Consider `CCOC(=O)CSc1nnc(Cc2ccccc2)n1-c1cccc(Cl)c1`, for which the AC50 at Cytochrome P450 2D6 was 0.0891 µM (inconclusive); on Cytochrome P450 1A2, 25.1 µM (inconclusive); on Cytochrome P450 2C9, 39.8 µM (inconclusive). Take `CC(=O)NC1(C(F)(F)F)C(=O)N(Cc2ccccc2)C2=C1C(=O)CC(C)(C)C2` (stereo unspecified): the AC50 was 15.8 µM (inconclusive) at Cytochrome P450 2C19 and 14.1 µM (inconclusive) at Cytochrome P450 3A4.

As to `Cc1cc(C)c2c(-n3cccc3)[nH]nc2n1`, the concentration at half-maximal activity (AC50) at Cytochrome P450 2C9 was 6.31 µM (inconclusive). In the case of `CC(O)(CS(=O)(=O)c1cccc(C(F)(F)F)c1)C(=O)Nc1ccc(C(F)(F)F)cc1` (stereo unspecified), the half-maximal activity concentration (AC50) on Cytochrome P450 2D6 is 0.0224 µM (inconclusive). The same measure, in the same setting: to `COc1cc(N)c(Cl)cc1C(=O)N[C@@H]1CN2CCC1CC2` belongs 39.8 µM (inconclusive). On to `O=[N+]([O-])c1ccc(/C=N/Nc2cc(Cl)nc(-c3ccccc3)n2)cc1`, for which, on Cytochrome P450 2C9, the half-maximal activity concentration (AC50) was 0.00562 µM (inconclusive). As for `C/C(=N\Nc1ccc(Cl)cc1)c1c(O)cc(C)oc1=O`, in assay [2], the EC50 is 29.4 µM (active). As to `c1ccc(C[C@@H](c2ccccc2)N2CCCCC2)cc1`, the results for the AC50 on Cytochrome P450 2C19, on Cytochrome P450 1A2 and at Cytochrome P450 3A4 were 7.94 µM (inconclusive), 15.8 µM (inconclusive) and 31.6 µM (inconclusive), respectively. For the compound `N#Cc1cccc(-c2cncnc2NCc2ccccc2)c1`, the half-maximal activity concentration (AC50) at Cytochrome P450 2D6 is 20 µM (inconclusive).
